Experimental data: the CheMixHub ionic liquid set
± gives the uncertainty stated by the source.

Experiment: xn = mol fraction of the nth substance listed
Conditions: 100 kPa

CCCCCCCC[n+]1ccccc1.[Br-] + NCC(=O)O + O
Conditions | electrical conductivity [S/m]
288.15 K, x2 = 0.0008947, x1 = 0.006107 | 1.24 ± 0.075
288.15 K, x2 = 0.000895, x1 = 0.005825 | 1.21 ± 0.073
288.15 K, x2 = 0.0008952, x1 = 0.005524 | 1.18 ± 0.071
288.15 K, x2 = 0.0008955, x1 = 0.005206 | 1.15 ± 0.069
288.15 K, x2 = 0.0008958, x1 = 0.004856 | 1.11 ± 0.067
288.15 K, x2 = 0.0008962, x1 = 0.004472 | 1.07 ± 0.064
288.15 K, x2 = 0.0008965, x1 = 0.004053 | 1 ± 0.06
288.15 K, x2 = 0.0008969, x1 = 0.003596 | 0.923 ± 0.055
288.15 K, x2 = 0.0008974, x1 = 0.003095 | 0.831 ± 0.05
288.15 K, x2 = 0.0008979, x1 = 0.00254 | 0.716 ± 0.043
288.15 K, x2 = 0.0008984, x1 = 0.00193 | 0.579 ± 0.035
288.15 K, x2 = 0.0008988, x1 = 0.001523 | 0.48 ± 0.029
288.15 K, x2 = 0.0008992, x1 = 0.00113 | 0.377 ± 0.023
288.15 K, x2 = 0.0008996, x1 = 0.000679 | 0.257 ± 0.015
288.15 K, x2 = 0.001793, x1 = 0.003383 | 0.886 ± 0.053
288.15 K, x2 = 0.001794, x1 = 0.002789 | 0.766 ± 0.046
288.15 K, x2 = 0.001795, x1 = 0.002127 | 0.621 ± 0.037
288.15 K, x2 = 0.001796, x1 = 0.00171 | 0.522 ± 0.031
288.15 K, x2 = 0.001797, x1 = 0.0007678 | 0.279 ± 0.017
288.15 K, x2 = 0.001797, x1 = 0.001253 | 0.407 ± 0.025
293.15 K, x2 = 0.0008947, x1 = 0.006101 | 1.41 ± 0.084
293.15 K, x2 = 0.000895, x1 = 0.005819 | 1.38 ± 0.083
293.15 K, x2 = 0.0008952, x1 = 0.005519 | 1.34 ± 0.08
293.15 K, x2 = 0.0008955, x1 = 0.005201 | 1.3 ± 0.078
293.15 K, x2 = 0.0008958, x1 = 0.00485 | 1.26 ± 0.075
293.15 K, x2 = 0.0008962, x1 = 0.004469 | 1.21 ± 0.072
293.15 K, x2 = 0.0008965, x1 = 0.00405 | 1.13 ± 0.068
293.15 K, x2 = 0.0008969, x1 = 0.003594 | 1.05 ± 0.063
293.15 K, x2 = 0.0008974, x1 = 0.003091 | 0.935 ± 0.056
293.15 K, x2 = 0.0008979, x1 = 0.002538 | 0.809 ± 0.049
293.15 K, x2 = 0.0008985, x1 = 0.001923 | 0.652 ± 0.039
293.15 K, x2 = 0.0008988, x1 = 0.001521 | 0.542 ± 0.033
293.15 K, x2 = 0.0008992, x1 = 0.00113 | 0.423 ± 0.025
293.15 K, x2 = 0.0008996, x1 = 0.000679 | 0.285 ± 0.017
293.15 K, x2 = 0.001793, x1 = 0.003379 | 1 ± 0.06
293.15 K, x2 = 0.001794, x1 = 0.002785 | 0.864 ± 0.052
293.15 K, x2 = 0.001795, x1 = 0.002125 | 0.701 ± 0.042
293.15 K, x2 = 0.001796, x1 = 0.001708 | 0.589 ± 0.035
293.15 K, x2 = 0.001797, x1 = 0.0007678 | 0.312 ± 0.019
293.15 K, x2 = 0.001797, x1 = 0.001251 | 0.458 ± 0.028
298.15 K, x2 = 0.0008947, x1 = 0.006092 | 1.59 ± 0.095
298.15 K, x2 = 0.000895, x1 = 0.005812 | 1.55 ± 0.093
298.15 K, x2 = 0.0008952, x1 = 0.005512 | 1.51 ± 0.091
298.15 K, x2 = 0.0008955, x1 = 0.005195 | 1.47 ± 0.088
298.15 K, x2 = 0.0008958, x1 = 0.004845 | 1.42 ± 0.085
298.15 K, x2 = 0.0008962, x1 = 0.004462 | 1.35 ± 0.081
298.15 K, x2 = 0.0008965, x1 = 0.004044 | 1.27 ± 0.076
298.15 K, x2 = 0.000897, x1 = 0.003589 | 1.18 ± 0.071
298.15 K, x2 = 0.0008974, x1 = 0.003088 | 1.05 ± 0.063
298.15 K, x2 = 0.0008979, x1 = 0.002534 | 0.906 ± 0.054
298.15 K, x2 = 0.0008985, x1 = 0.001921 | 0.725 ± 0.043
298.15 K, x2 = 0.0008988, x1 = 0.001519 | 0.603 ± 0.036
298.15 K, x2 = 0.0008992, x1 = 0.001128 | 0.473 ± 0.029
298.15 K, x2 = 0.0008996, x1 = 0.0006772 | 0.315 ± 0.019
298.15 K, x2 = 0.001793, x1 = 0.003376 | 1.11 ± 0.067
298.15 K, x2 = 0.001794, x1 = 0.002781 | 0.967 ± 0.058
298.15 K, x2 = 0.001795, x1 = 0.002123 | 0.782 ± 0.047
298.15 K, x2 = 0.001796, x1 = 0.001706 | 0.657 ± 0.04
298.15 K, x2 = 0.001797, x1 = 0.000766 | 0.347 ± 0.021
298.15 K, x2 = 0.001797, x1 = 0.001249 | 0.511 ± 0.031
303.15 K, x2 = 0.0008947, x1 = 0.006085 | 1.78 ± 0.11
303.15 K, x2 = 0.000895, x1 = 0.005803 | 1.74 ± 0.1
303.15 K, x2 = 0.0008952, x1 = 0.005503 | 1.69 ± 0.1
303.15 K, x2 = 0.0008955, x1 = 0.005188 | 1.64 ± 0.098
303.15 K, x2 = 0.0008958, x1 = 0.004838 | 1.58 ± 0.095
303.15 K, x2 = 0.0008962, x1 = 0.004456 | 1.51 ± 0.09
303.15 K, x2 = 0.0008965, x1 = 0.004039 | 1.42 ± 0.085
303.15 K, x2 = 0.000897, x1 = 0.003583 | 1.3 ± 0.078
303.15 K, x2 = 0.0008974, x1 = 0.003082 | 1.17 ± 0.07
303.15 K, x2 = 0.0008979, x1 = 0.002531 | 1 ± 0.06
303.15 K, x2 = 0.0008985, x1 = 0.001917 | 0.791 ± 0.048
303.15 K, x2 = 0.0008988, x1 = 0.001517 | 0.654 ± 0.039
303.15 K, x2 = 0.0008992, x1 = 0.001126 | 0.519 ± 0.031
303.15 K, x2 = 0.0008996, x1 = 0.0006772 | 0.351 ± 0.021
303.15 K, x2 = 0.001793, x1 = 0.00337 | 1.24 ± 0.074
303.15 K, x2 = 0.001794, x1 = 0.002778 | 1.08 ± 0.065
303.15 K, x2 = 0.001795, x1 = 0.002119 | 0.859 ± 0.052
303.15 K, x2 = 0.001796, x1 = 0.001704 | 0.719 ± 0.043
303.15 K, x2 = 0.001797, x1 = 0.000766 | 0.383 ± 0.023
303.15 K, x2 = 0.001797, x1 = 0.001247 | 0.566 ± 0.034
308.15 K, x2 = 0.0008947, x1 = 0.006075 | 2.03 ± 0.12
308.15 K, x2 = 0.000895, x1 = 0.005792 | 1.97 ± 0.12
308.15 K, x2 = 0.0008952, x1 = 0.005494 | 1.9 ± 0.11
308.15 K, x2 = 0.0008955, x1 = 0.005178 | 1.84 ± 0.11
308.15 K, x2 = 0.0008958, x1 = 0.004829 | 1.75 ± 0.1
308.15 K, x2 = 0.0008962, x1 = 0.004449 | 1.66 ± 0.1
308.15 K, x2 = 0.0008966, x1 = 0.004032 | 1.57 ± 0.094
308.15 K, x2 = 0.000897, x1 = 0.003578 | 1.44 ± 0.086
308.15 K, x2 = 0.0008974, x1 = 0.003077 | 1.26 ± 0.076
308.15 K, x2 = 0.0008979, x1 = 0.002527 | 1.07 ± 0.064
308.15 K, x2 = 0.0008985, x1 = 0.001914 | 0.861 ± 0.052
308.15 K, x2 = 0.0008988, x1 = 0.001516 | 0.717 ± 0.043
308.15 K, x2 = 0.0008992, x1 = 0.001125 | 0.574 ± 0.035
308.15 K, x2 = 0.0008996, x1 = 0.0006754 | 0.425 ± 0.026
308.15 K, x2 = 0.001793, x1 = 0.003365 | 1.36 ± 0.082
308.15 K, x2 = 0.001794, x1 = 0.002774 | 1.17 ± 0.07
308.15 K, x2 = 0.001795, x1 = 0.002116 | 0.934 ± 0.056
308.15 K, x2 = 0.001796, x1 = 0.001701 | 0.79 ± 0.048
308.15 K, x2 = 0.001797, x1 = 0.0007642 | 0.453 ± 0.027
308.15 K, x2 = 0.001797, x1 = 0.001245 | 0.624 ± 0.037
